System: 5α-reductase
Test: 5α-reductase inhibitory efficacy: DHT produced in testosterone-stimulated dermal papilla cells (DHT ELISA)
Format: cell-based
Details: 50 nM testosterone, 24 hours, produced DHT relative to control
Experimental: After seeding 1 ml of dermal papilla cells (DPCs) by 5×10^5/ml into each well of a 24-well plate, then incubating the same for 24 hours, each of the reaction products prepared according to procedures described in Examples 1 to 72 was added in amounts of 50 μg/ml, 10 μg/ml and 0 μg/ml, respectively, to individual wells. After 1 hour, the wells were subjected to stimulation using 50 nM testosterone (DMSO dissolved). The supernatant was discarded 24 hours after culturing, to thus obtain DPc pellets. A content of dihydrotestosterone (DHT) (DB52021, Hamburg, Germany) was determined by means of enzyme-linked immune-sorbent assay. DPCs cell pellets were seeded in an amount of 100 μL into each of Dihydrotestosterone (DHT) ELISA microtiter strips coated with rabbit anti-DHT antibody, 25 μL of DHT antiserum was seeded in every well, and subjected to a reaction at 2 to 8° C. for 15 to 20 hours, followed by washing the same three times. Thereafter, 100 μL of DHT-HRP enzyme conjugate was seeded in every well and reacted on a shaker at room temperature for 30 minutes, followed by washing the same three times. Furthermore, 100 μL of substrate was seeded in every well and reacted on a shaker at room temperature for 20 to 30 minutes. Then, the product was treated using 100 μL stop solution, and subjected to measurement of absorbance at 450 nm to express an amount of produced DHT by the absorbance (three times repeated). An amount of produced DHT relative to a control was calculated in terms of an inhibitory rate (%), and results thereof are shown in Table 3 below.

Compound: CCCCCCCCOC1CCC2(C)C(CCC3(C)C2CC=C2C4CC(C)(C)CCC4(C)CCC23C)C1(C)C (stereo not drawn) [Compound in Example 52, O-octyl-β-amyrin]
- 5α-reductase inhibitory rate (%) (sample concentration 10 μg/ml): 28%
- 5α-reductase inhibitory rate (%) (sample concentration 50 μg/ml): 43%

Compound: β-boswellic acid stearate [Compound in Example 31]
- 5α-reductase inhibitory rate (%) (sample concentration 10 μg/ml): 31%
- 5α-reductase inhibitory rate (%) (sample concentration 50 μg/ml): 47%

Compound: ursolic acid acetate [Compound in Example 19]
- 5α-reductase inhibitory rate (%) (sample concentration 10 μg/ml): 22%
- 5α-reductase inhibitory rate (%) (sample concentration 50 μg/ml): 31%

Compound: betulinic acid stearate [Compound in Example 33]
- 5α-reductase inhibitory rate (%) (sample concentration 10 μg/ml): 31%
- 5α-reductase inhibitory rate (%) (sample concentration 50 μg/ml): 51%

Compound: CCCCCCCCCCCCCCCCCC(=O)O[C@H]1CC[C@@]2(C)C(=CC[C@H]3[C@@H]4CC[C@H]([C@H](C)/C=C/[C@@H](CC)C(C)C)[C@@]4(C)CC[C@@H]32)C1 [Compound in Example 43, Stigmasterol stearate]
- 5α-reductase inhibitory rate (%) (sample concentration 10 μg/ml): 31%
- 5α-reductase inhibitory rate (%) (sample concentration 50 μg/ml): 41%

Compound: brassicasterol stearate [Compound in Example 47]
- 5α-reductase inhibitory rate (%) (sample concentration 10 μg/ml): 24%
- 5α-reductase inhibitory rate (%) (sample concentration 50 μg/ml): 39%

Compound: CCCCCCCC(=O)OC1CCC2(C)C(=CCC3C2CCC2(C)C(C(C)CCC(CC)C(C)C)CCC32)C1 (stereo not drawn) [Compound in Example 16, β-sitosterol octanoate]
- 5α-reductase inhibitory rate (%) (sample concentration 10 μg/ml): 28%
- 5α-reductase inhibitory rate (%) (sample concentration 50 μg/ml): 39%

Compound: CCCCCCCCCCCCCCCCCC(=O)O[C@H]1CC[C@@]2(C)C(=CC[C@H]3[C@@H]4CC[C@H]([C@H](C)CC[C@@H](CC)C(C)C)[C@@]4(C)CC[C@@H]32)C1 [Compound in Example 17, β-sitosterol stearate]
- 5α-reductase inhibitory rate (%) (sample concentration 10 μg/ml): 31%
- 5α-reductase inhibitory rate (%) (sample concentration 50 μg/ml): 42%

Compound: CCCCCCCCCCCCCCCCCCO[C@H]1CC[C@@]2(C)C(=CC[C@H]3[C@@H]4CC[C@H]([C@H](C)CC[C@@H](CC)C(C)C)[C@@]4(C)CC[C@@H]32)C1 [Compound in Example 58, O-octadecyl-β-sitosterol]
- 5α-reductase inhibitory rate (%) (sample concentration 10 μg/ml): 31%
- 5α-reductase inhibitory rate (%) (sample concentration 50 μg/ml): 46%

Compound: ursolic acid stearate [Compound in Example 21]
- 5α-reductase inhibitory rate (%) (sample concentration 10 μg/ml): 35%
- 5α-reductase inhibitory rate (%) (sample concentration 50 μg/ml): 51%

Compound: C/C=C(\CC[C@@H](C)[C@H]1CC[C@H]2[C@@H]3CC=C4C[C@@H](O)CC[C@]4(C)[C@H]3CC[C@]12C)C(C)C [Compound in Example 48, fucosterol]
- 5α-reductase inhibitory rate (%) (sample concentration 10 μg/ml): 12%
- 5α-reductase inhibitory rate (%) (sample concentration 50 μg/ml): 19%

Compound: CC(C)[C@@H](C)/C=C/[C@@H](C)[C@H]1CC[C@H]2[C@@H]3CC=C4C[C@@H](O)CC[C@]4(C)[C@H]3CC[C@]12C [Compound in Example 46, brassicasterol]
- 5α-reductase inhibitory rate (%) (sample concentration 10 μg/ml): 8%
- 5α-reductase inhibitory rate (%) (sample concentration 50 μg/ml): 19%

Compound: CC[C@H](CC[C@@H](C)[C@H]1CC[C@H]2[C@@H]3CC=C4C[C@@H](OC(C)=O)CC[C@]4(C)[C@H]3CC[C@]12C)C(C)C [Compound in Example 15, β-sitosterol acetate]
- 5α-reductase inhibitory rate (%) (sample concentration 10 μg/ml): 21%
- 5α-reductase inhibitory rate (%) (sample concentration 50 μg/ml): 29%

Compound: CCCCCCCCOC1CCC2(C)C(=CCC3C2CCC2(C)C(C(C)CCC(CC)C(C)C)CCC32)C1 (stereo not drawn) [Compound in Example 57, O-octyl-β-sitosterol]
- 5α-reductase inhibitory rate (%) (sample concentration 10 μg/ml): 21%
- 5α-reductase inhibitory rate (%) (sample concentration 50 μg/ml): 41%

Compound: C=C(C)C1CCC2(C(=O)O)CCC3(C)C(CCC4C5(C)CCC(OCCCCCCCC)C(C)(C)C5CCC43C)C12 (stereo not shown) [Compound in Example 65, O-octyl-betulinic acid]
- 5α-reductase inhibitory rate (%) (sample concentration 10 μg/ml): 19%
- 5α-reductase inhibitory rate (%) (sample concentration 50 μg/ml): 31%

Compound: CCCCCCCCCCCCCCCC(=O)O[C@H]1CC[C@]2(C)[C@H]3CC=C4[C@@H]5CC(C)(C)CC[C@]5(C)CC[C@@]4(C)[C@]3(C)CC[C@H]2C1(C)C [Compound in Example 7, β-amyrin palmitate]
- 5α-reductase inhibitory rate (%) (sample concentration 10 μg/ml): 53%
- 5α-reductase inhibitory rate (%) (sample concentration 50 μg/ml): 67%

Compound: α-amyrin stearate [Compound in Example 13]
- 5α-reductase inhibitory rate (%) (sample concentration 10 μg/ml): 45%
- 5α-reductase inhibitory rate (%) (sample concentration 50 μg/ml): 57%

Compound: CCCCCCCCCCCCCCCCCCOC1CCC2(C)C(CCC3(C)C2CC=C2C4C(C)C(C)CCC4(C(=O)O)CCC23C)C1(C)C (stereo not shown) [Compound in Example 60, O-octadecyl-ursolic acid]
- 5α-reductase inhibitory rate (%) (sample concentration 10 μg/ml): 35%
- 5α-reductase inhibitory rate (%) (sample concentration 50 μg/ml): 49%

Compound: CCCCCCCCOC1CCC2(C)C(CCC3(C)C2CC=C2C4C(C)C(C)CCC4(C(=O)O)CCC23C)C1(C)C (stereo not shown) [Compound in Example 59, O-octyl-ursolic acid]
- 5α-reductase inhibitory rate (%) (sample concentration 10 μg/ml): 22%
- 5α-reductase inhibitory rate (%) (sample concentration 50 μg/ml): 41%

Compound: CC[C@H](CC[C@@H](C)[C@H]1CC[C@H]2[C@@H]3CC=C4C[C@@H](O)CC[C@]4(C)[C@H]3CC[C@]12C)C(C)C [Compound in Example 14, β-sitosterol]
- 5α-reductase inhibitory rate (%) (sample concentration 10 μg/ml): 11%
- 5α-reductase inhibitory rate (%) (sample concentration 50 μg/ml): 26%

Compound: C[C@H]1[C@H](C)CC[C@]2(C(=O)O)CC[C@]3(C)C(=CC[C@@H]4[C@@]5(C)CC[C@H](O)C(C)(C)[C@@H]5CC[C@]43C)[C@H]12 [Compound in Example 18, ursolic acid]
- 5α-reductase inhibitory rate (%) (sample concentration 10 μg/ml): 16%
- 5α-reductase inhibitory rate (%) (sample concentration 50 μg/ml): 29%

Compound: C[C@]12CC[C@H](O)CC1=CC[C@@H]1[C@@H]2CC[C@]2(C)C(=O)CC[C@@H]12 [Compound in Example 36, dihydroandrosterone]
- 5α-reductase inhibitory rate (%) (sample concentration 10 μg/ml): 9%
- 5α-reductase inhibitory rate (%) (sample concentration 50 μg/ml): 28%

Compound: CC1(C)[C@@H](O)CC[C@]2(C)[C@H]3C(=O)C=C4[C@@H]5C[C@@](C)(C(=O)O)CC[C@]5(C)CC[C@@]4(C)[C@]3(C)CC[C@@H]12 [Compound in Example 34, glycyrrhetinic acid]
- 5α-reductase inhibitory rate (%) (sample concentration 10 μg/ml): 6%
- 5α-reductase inhibitory rate (%) (sample concentration 50 μg/ml): 18%

Compound: α-boswellic acid stearate [Compound in Example 28]
- 5α-reductase inhibitory rate (%) (sample concentration 10 μg/ml): 37%
- 5α-reductase inhibitory rate (%) (sample concentration 50 μg/ml): 51%

Compound: CCCCCCCCOC1CCC2(C)C(=CCC3C2CCC2(C)C(C(C)CCC=C(C)C)CCC32)C1 (stereo not shown) [Compound in Example 67, O-octyl-desmosterol]
- 5α-reductase inhibitory rate (%) (sample concentration 10 μg/ml): 24%
- 5α-reductase inhibitory rate (%) (sample concentration 50 μg/ml): 41%

Compound: β-amyrin behenate [Compound in Example 9]
- 5α-reductase inhibitory rate (%) (sample concentration 10 μg/ml): 38%
- 5α-reductase inhibitory rate (%) (sample concentration 50 μg/ml): 59%

Compound: CC(=O)OC1CCC2(C)C(CCC3(C)C2CC=C2C4C(C)C(C)CCC4(C)CCC23C)C1(C)C(=O)O (stereo not drawn) [Compound in Example 30, β-boswellic acid acetate]
- 5α-reductase inhibitory rate (%) (sample concentration 10 μg/ml): 14%
- 5α-reductase inhibitory rate (%) (sample concentration 50 μg/ml): 29%

Compound: CCCCCCCC(=O)OC1CCC2(C)C(CCC3(C)C2CC=C2C4C(C)C(C)CCC4(C(=O)O)CCC23C)C1(C)C (stereo not shown) [Compound in Example 20, ursolic acid octanoate]
- 5α-reductase inhibitory rate (%) (sample concentration 10 μg/ml): 31%
- 5α-reductase inhibitory rate (%) (sample concentration 50 μg/ml): 46%

Compound: CC1(C)CC[C@]2(C)CC[C@]3(C)C(=CC[C@@H]4[C@@]5(C)CC[C@H](O)C(C)(C)[C@@H]5CC[C@]43C)[C@@H]2C1 [Compound in Example 1, β-amyrin]
- 5α-reductase inhibitory rate (%) (sample concentration 10 μg/ml): 15%
- 5α-reductase inhibitory rate (%) (sample concentration 50 μg/ml): 28%

Compound: CCCCCCCCCCCCCCCCCC(=O)O[C@H]1CC[C@@]2(C)C(=CC[C@H]3[C@@H]4CC[C@H]([C@H](C)CCCC(C)C)[C@@]4(C)CC[C@@H]32)C1 [Compound in Example 41, cholesterol stearate]
- 5α-reductase inhibitory rate (%) (sample concentration 10 μg/ml): 26%
- 5α-reductase inhibitory rate (%) (sample concentration 50 μg/ml): 39%

Compound: COC1CCC2(C)C(CCC3(C)C2CC=C2C4CC(C)(C)CCC4(C)CCC23C)C1(C)C (stereo not drawn) [Compound in Example 50, O-methyl-β-amyrin]
- 5α-reductase inhibitory rate (%) (sample concentration 10 μg/ml): 16%
- 5α-reductase inhibitory rate (%) (sample concentration 50 μg/ml): 31%

Compound: fucosterol stearate [Compound in Example 49]
- 5α-reductase inhibitory rate (%) (sample concentration 10 μg/ml): 25%
- 5α-reductase inhibitory rate (%) (sample concentration 50 μg/ml): 41%

Compound: C/C=C(\CC[C@@H](C)[C@H]1CC[C@H]2[C@@H]3CC=C4C[C@@H](OCCCCCCCC)CC[C@]4(C)[C@H]3CC[C@]12C)C(C)C [Compound in Example 72, O-octyl-fucosterol]
- 5α-reductase inhibitory rate (%) (sample concentration 10 μg/ml): 19%
- 5α-reductase inhibitory rate (%) (sample concentration 50 μg/ml): 35%

Compound: glycyrrhetinic acid stearate [Compound in Example 35]
- 5α-reductase inhibitory rate (%) (sample concentration 10 μg/ml): 24%
- 5α-reductase inhibitory rate (%) (sample concentration 50 μg/ml): 39%

Compound: CCCCCCCCOC1CCC2(C)C(CCC3(C)C2C(=O)C=C2C4CC(C)(C(=O)O)CCC4(C)CCC23C)C1(C)C (stereo not shown) [Compound in Example 66, O-octyl-glycyrrhetinic acid]
- 5α-reductase inhibitory rate (%) (sample concentration 10 μg/ml): 33%
- 5α-reductase inhibitory rate (%) (sample concentration 50 μg/ml): 51%

Compound: CC(=O)O[C@H]1CC[C@]2(C)[C@H]3CC=C4[C@@H]5CC(C)(C)CC[C@]5(C)CC[C@@]4(C)[C@]3(C)CC[C@H]2C1(C)C [Compound in Example 2, β-amyrin acetate]
- 5α-reductase inhibitory rate (%) (sample concentration 10 μg/ml): 21%
- 5α-reductase inhibitory rate (%) (sample concentration 50 μg/ml): 34%

Compound: CCCCCCCC(=O)OC1CCC2(C)C(CCC3(C)C2CC=C2C4C(C)C(C)CCC4(C)CCC23C)C1(C)C (stereo not drawn) [Compound in Example 12, α-amyrin octanoate]
- 5α-reductase inhibitory rate (%) (sample concentration 10 μg/ml): 35%
- 5α-reductase inhibitory rate (%) (sample concentration 50 μg/ml): 49%

Compound: CC[C@H](/C=C/[C@@H](C)[C@H]1CC[C@H]2[C@@H]3CC=C4C[C@@H](O)CC[C@]4(C)[C@H]3CC[C@]12C)C(C)C [Compound in Example 42, Stigmasterol]
- 5α-reductase inhibitory rate (%) (sample concentration 10 μg/ml): 8%
- 5α-reductase inhibitory rate (%) (sample concentration 50 μg/ml): 24%

Source: patent US20150246058A1, “COMPOSITION FOR PREVENTING HAIR LOSS AND ACCELERATING HAIR GROWTH” (RNS CO., LTD., priority 2012, published 2015)
